# Where two headings read alike, the source gives them in different places.
# Experiments:
# [1] = target: T1, OR5AN1 (Homo sapiens, UniProt Q8NGI8); assay: OR5AN1 cell-based cAMP HTRF assay; details: for Emax: read-out: OR5AN1 % Efficacy
# T1 construct: Lucy (cleavable signal peptide) (N); FLAG (N); Rho (first 20 aa of bovine rhodopsin) (N); expressed in transfected cells
# T1 sequence (Q8NGI8 1-311): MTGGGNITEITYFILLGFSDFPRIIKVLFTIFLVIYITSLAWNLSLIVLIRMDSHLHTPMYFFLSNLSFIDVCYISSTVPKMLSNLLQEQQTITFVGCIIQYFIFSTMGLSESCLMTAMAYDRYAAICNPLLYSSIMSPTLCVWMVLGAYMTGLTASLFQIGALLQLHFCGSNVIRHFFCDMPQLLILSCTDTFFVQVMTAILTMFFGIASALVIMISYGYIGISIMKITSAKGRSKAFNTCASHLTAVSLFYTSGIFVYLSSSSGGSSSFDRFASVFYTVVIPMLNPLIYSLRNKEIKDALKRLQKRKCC
# [2] = target: T2, OR8D1 (Homo sapiens, UniProt Q8WZ84); assay: OR8D1 cell-based cAMP HTRF assay; details: dose-response, 100% = full agonist; for Emax: read-out: OR8D1 % Efficacy
# T2 construct: Lucy (cleavable signal peptide) (N); FLAG (N); Rho (first 20 aa of bovine rhodopsin) (N); expressed in transfected cells
# T2 sequence (Q8WZ84 1-308): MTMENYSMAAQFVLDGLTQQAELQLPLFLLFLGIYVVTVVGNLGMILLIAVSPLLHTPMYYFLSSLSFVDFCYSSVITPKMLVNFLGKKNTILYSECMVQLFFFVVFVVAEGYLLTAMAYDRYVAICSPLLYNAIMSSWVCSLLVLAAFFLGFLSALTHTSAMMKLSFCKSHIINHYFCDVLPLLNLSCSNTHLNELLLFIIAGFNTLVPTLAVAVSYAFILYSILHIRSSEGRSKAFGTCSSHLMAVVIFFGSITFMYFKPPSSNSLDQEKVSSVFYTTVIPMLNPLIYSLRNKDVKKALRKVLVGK
# [3] = target: T3, OR1C1 (Homo sapiens, UniProt Q15619); assay: OR1C1 cell-based cAMP HTRF assay; details: dose-response; 100% = full agonist; read-out: OR1C1 % Efficacy
# T3 construct: Lucy (cleavable signal peptide) (N); FLAG (N); Rho (first 20 aa of bovine rhodopsin) (N); expressed in transfected cells
# T3 sequence (Q15619 1-314): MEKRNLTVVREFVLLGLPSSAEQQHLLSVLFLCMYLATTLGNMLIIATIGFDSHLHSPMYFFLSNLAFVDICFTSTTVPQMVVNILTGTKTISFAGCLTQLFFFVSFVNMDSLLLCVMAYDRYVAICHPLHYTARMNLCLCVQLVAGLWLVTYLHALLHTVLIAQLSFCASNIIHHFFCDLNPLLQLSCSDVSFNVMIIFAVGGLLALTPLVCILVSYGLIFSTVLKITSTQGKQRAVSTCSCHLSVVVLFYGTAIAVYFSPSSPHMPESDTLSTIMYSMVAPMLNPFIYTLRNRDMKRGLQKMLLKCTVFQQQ
# [4] = target: T4, OR10J5 (Homo sapiens, UniProt Q8NHC4); assay: OR10J5 cell-based cAMP HTRF assay; details: for Emax: read-out: OR10J5 % Efficacy
# T4 construct: Lucy (cleavable signal peptide) (N); FLAG (N); Rho (first 20 aa of bovine rhodopsin) (N); expressed in transfected cells
# T4 sequence (Q8NHC4 1-309): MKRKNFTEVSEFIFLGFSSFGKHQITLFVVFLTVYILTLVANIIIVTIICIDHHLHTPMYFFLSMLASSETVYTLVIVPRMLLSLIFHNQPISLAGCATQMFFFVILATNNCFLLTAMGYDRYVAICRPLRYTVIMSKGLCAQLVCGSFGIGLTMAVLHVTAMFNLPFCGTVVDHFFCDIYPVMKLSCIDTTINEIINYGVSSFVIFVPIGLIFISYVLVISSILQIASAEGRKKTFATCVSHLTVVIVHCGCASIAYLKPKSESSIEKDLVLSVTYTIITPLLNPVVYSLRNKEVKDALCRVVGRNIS
# [5] = target: T5, OR1N2 (Homo sapiens, UniProt Q8NGR9, T287M/V230G/W23R); assay: OR1N2 cell-based cAMP HTRF assay; details: read-out: OR1N2 % Efficacy
# T5 construct: Lucy (cleavable signal peptide) (N); FLAG (N); Rho (first 20 aa of bovine rhodopsin) (N); expressed in transfected cells
# T5 sequence (Q8NGR9 1-316 W23R/V230G/T287M): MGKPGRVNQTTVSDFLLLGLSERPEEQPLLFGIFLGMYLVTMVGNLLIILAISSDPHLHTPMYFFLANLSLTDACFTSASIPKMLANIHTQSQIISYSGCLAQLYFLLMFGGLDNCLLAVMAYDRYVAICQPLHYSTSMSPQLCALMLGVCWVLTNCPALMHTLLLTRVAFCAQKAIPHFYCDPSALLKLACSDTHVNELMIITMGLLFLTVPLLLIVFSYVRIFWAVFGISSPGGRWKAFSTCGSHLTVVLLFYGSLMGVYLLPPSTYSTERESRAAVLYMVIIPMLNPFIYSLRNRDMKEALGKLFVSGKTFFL
# [6] = target: T6, OR5A1 (Homo sapiens, UniProt Q8NGJ0); assay: OR5A1 cell-based cAMP HTRF assay
# T6 construct: Lucy (cleavable signal peptide) (N); FLAG (N); Rho (first 20 aa of bovine rhodopsin) (N); expressed in transfected cells
# T6 sequence (Q8NGJ0 1-315): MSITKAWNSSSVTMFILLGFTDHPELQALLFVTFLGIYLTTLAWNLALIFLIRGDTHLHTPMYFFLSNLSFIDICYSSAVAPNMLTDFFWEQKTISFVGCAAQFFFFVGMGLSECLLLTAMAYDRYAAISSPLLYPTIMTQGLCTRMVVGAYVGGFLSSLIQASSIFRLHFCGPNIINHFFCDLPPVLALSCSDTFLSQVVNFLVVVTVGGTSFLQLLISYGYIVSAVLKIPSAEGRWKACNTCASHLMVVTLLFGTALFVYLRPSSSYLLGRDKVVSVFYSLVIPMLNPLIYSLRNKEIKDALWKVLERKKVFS
# [7] = target: T7, OR7A17 (Homo sapiens, UniProt O14581); assay: OR7A17 cell-based cAMP HTRF assay; details: FIG. 1
# T7 construct: Lucy (cleavable signal peptide) (N); FLAG (N); Rho (first 20 aa of bovine rhodopsin) (N); expressed in transfected cells
# T7 sequence (O14581 1-309): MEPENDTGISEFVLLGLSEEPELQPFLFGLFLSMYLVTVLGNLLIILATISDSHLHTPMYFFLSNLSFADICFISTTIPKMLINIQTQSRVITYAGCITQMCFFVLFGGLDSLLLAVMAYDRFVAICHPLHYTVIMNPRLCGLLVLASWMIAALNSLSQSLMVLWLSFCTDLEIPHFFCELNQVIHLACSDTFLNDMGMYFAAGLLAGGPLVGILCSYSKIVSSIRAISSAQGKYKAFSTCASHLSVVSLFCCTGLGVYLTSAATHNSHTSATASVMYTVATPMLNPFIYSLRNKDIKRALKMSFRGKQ
# [8] = target: T8, OR5B12 (Homo sapiens, UniProt Q96R08); assay: OR5B12 cell-based cAMP HTRF assay; details: dose-response; 100% = full agonist
# T8 construct: Lucy (cleavable signal peptide) (N); FLAG (N); Rho (first 20 aa of bovine rhodopsin) (N); expressed in transfected cells
# T8 sequence (Q96R08 1-314): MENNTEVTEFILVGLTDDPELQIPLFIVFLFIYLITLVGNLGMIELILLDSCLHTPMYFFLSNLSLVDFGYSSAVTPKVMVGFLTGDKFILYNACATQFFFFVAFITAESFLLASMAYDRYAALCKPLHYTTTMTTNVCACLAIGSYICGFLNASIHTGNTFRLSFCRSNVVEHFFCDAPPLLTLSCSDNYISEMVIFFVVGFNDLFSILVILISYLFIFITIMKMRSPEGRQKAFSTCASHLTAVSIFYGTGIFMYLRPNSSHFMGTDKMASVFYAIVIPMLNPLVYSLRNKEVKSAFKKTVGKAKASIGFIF
# [9] = dose-response, 100% = full agonist
molecule,measurement,setting,value
3-methylcyclopentadec-4-en-1-one; 3-methylcyclopentadec-5-en-1-one [Muscenone delta],OR5AN1 % Efficacy,[1]; [9],86%
"CC1=C(O)C(=O)CC1 [Cyclotone, 2-hydroxy-3-methylcyclopent-2-en-1-one]",Emax,[2],97%
"O=C1CCC=CCCCCCCCCCC1 [Exaltenone, cyclopentadec-4-en-1-one]",Emax,[1]; [9],86%
"C=CC(C)(O)CCC=C(C)CC (stereo not drawn) [Ethyl Linalool, 3,7-dimethylnona-1,6-dien-3-ol]",Emax,[3],99%
methyl 2-[[3-(4-hydroxy-4-methylpentyl)cyclohex-3-en-1-ylidene]methylamino]benzoate; methyl 2-[[4-(4-hydroxy-4-methylpentyl)cyclohex-3 -en-1-ylidene]methylamino]benzoate [Lyronol 50 dipg],OR10J5 % Efficacy,[4]; [9],100%
"CC(C)(O)CCCC1=CCC(C=O)CC1 (stereo not drawn) [Lyral, 3-(4-hydroxy-4-methylpentyl)cyclohex-3-ene-1-carbaldehyde; 4-(4-hydroxy-4-methylpentyl)cyclohex-3-ene-1-carbaldehyde]",Emax,[4],100%
"CC(=O)c1c(C)c([N+](=O)[O-])c(C(C)(C)C)c([N+](=O)[O-])c1C [Musk ketone, 1-(4-~{tert}-butyl-2,6-dimethyl-3,5-dinitrophenyl)ethanone]",Emax,[1]; [9],100%
"CCC=C1OC(=O)c2ccccc21 [Propylidene phthalide, 3-propylidene-2-benzofuran-1-one]",Emax,[2],80%
"CC(C)CC1CC(C)(O)CCO1 (stereo not drawn) [Florol, 4-methyl-2-(2-methylpropyl)oxan-4-ol]",Emax,[4]; [9],40%
"Cc1ccc2c(c1)CC(C)(CO)C2 (stereo not drawn) [Lilyflore, (2,5-dimethyl-1,3-dihydroinden-2-yl)methanol]",Emax,[4]; [9],58%
"O=C1CCCCCCCC=CCCCCCCC1 [Civetone, cycloheptadec-9-en-1-one]",Emax,[5],94%
"C=CC(C)(O)CCCC(C)C (stereo not drawn) [Dihydrolinalool, 3,7-dimethyloct-1-en-3-ol]",Emax,[3],95%
"O=C1CCCCCCCCCCCC(=O)OCCO1 [Astrotone, 1,4-dioxacycloheptadecane-5,17-dione]",Emax,[5]; [9],59%
"CCCC1CC(=O)C=C(C)C1 (stereo not drawn) [Celery ketone, 3-methyl-5-propylcyclohex-2-en-1-one]",Emax,[2],76%
"CCC(C)(O)CCCC(C)C (stereo not drawn) [Tetralinol, 3,7-dimethyloctan-3-ol]",Emax,[3],79%
"C=CC(C)(O)CCC=C(C)C (stereo not drawn) [Linalool, 3,7-dimethylocta-1,6-dien-3-ol]",Emax,[3],100%
"C[C@@H]1CCCCCCCCCCCCC(=O)C1 [Muscone, (R)-3-methylcyclopentadecanone]",Emax,[1]; [9],75%
"CC(=O)C=CC1=C(C)CCCC1(C)C [Beta-ionone, 4-(2,6,6-trimethylcyclohexen-1-yl)but-3-en-2-one]",activation of OR5A1 (violet tonality),[6]; FIG. 1,activation
same,Emax,"[6]; dose-response, 100% = full agonist, read-out: OR5A1 % Efficacy",100%
same,activation of OR7A17 (blonde woody tonality),[7],activation
"O=C1CCCCCCCC=CCCCCCCO1 [Ambrettolide, 1-oxacycloheptadec-10-en-2-one]",Emax,[5]; [9],100%
"Cc1c([N+](=O)[O-])c(C)c([N+](=O)[O-])c(C(C)(C)C)c1[N+](=O)[O-] [Musk xylol, 1-~{tert}-butyl-3,5-dimethyl-2,4,6-trinitrobenzene]",OR5AN1 % Efficacy,[1],97%
"CCCCC[C@@H]1C(=O)CC[C@@H]1CC(=O)OC [Hedione, methyl 2-[(1~{R},2~{S})-3-oxo-2-pentylcyclopentyl]acetate]",OR5B12 % Efficacy,[8],86%
"CC1=C(O)C(=O)OC1C (stereo not drawn) [Sotolone, 4-hydroxy-2,3-dimethyl-2~{H}-furan-5-one]",OR8D1 % Efficacy,[2],100%
"methyl 2-[(1~{S},2~{S})-3-oxo-2-pentylcyclopentyl]acetate; methyl 2-[(1~{R},2~{S})-3-oxo-2-pentylcy clopentyl]acetate [Jasmodione]",OR5B12 % Efficacy,[8],98%
"CC(=CCCC=O)CCCC(C)(C)O [Mahonial, 9-hydroxy-5,9-dimethyldec-4-enal]",Emax,[4]; [9],96%
"CCC1OC(=O)C(O)=C1C (stereo not drawn) [Maple Furanone, 2-ethyl-4-hydroxy-3-methyl-2~{H}-furan-5-one]",OR8D1 % Efficacy,[2],100%
